Data published in the supplement of paper PMC10307832.

Columns and labels:
Assay in all cases: relative viability (nuclei count vs DMSO), 5 days (fraction); higher = more cells survive
Dactolisib + Navitoclax = compound: Cn1c(=O)n(-c2ccc(C(C)(C)C#N)cc2)c2c3cc(-c4cnc5ccccc5c4)ccc3ncc21 [Dactolisib] + CC1(C)CCC(c2ccc(Cl)cc2)=C(CN2CCN(c3ccc(C(=O)NS(=O)(=O)c4ccc(N[C@H](CCN5CCOCC5)CSc5ccccc5)c(S(=O)(=O)C(F)(F)F)c4)cc3)CC2)C1 [Navitoclax] (partner 0.5 µM)
In short: (§1)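 After 5 days of treatment, lung cancer cells in 1536-well plates were fixed and stained in a single step (final 0.05% Triton X-100, 1% formaldehyde, 1 ug/ml Hoechst) and their nuclei counted on 4× images. Treatment had been applied by pin tool the day after seeding as one drug alone or as a fixed anchor-drug dose with five library-drug doses (not always all listed) in √10 steps. Relative viability is the nuclei count of treated wells divided by that of vehicle wells, and values are medians of duplicate plates.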

AZ505 + Vorinostat = compound: C1CCC(CC1)N(CCNCCC2=C3C(=C(C=C2)O)NC(=O)CO3)C(=O)CCNCCC4=CC(=C(C=C4)Cl)Cl [AZ505] + O=C(CCCCCCC(=O)Nc1ccccc1)NO [Vorinostat] (partner 1 µM)
In short: as §1

Dactolisib + Trametinib = compound: Cn1c(=O)n(-c2ccc(C(C)(C)C#N)cc2)c2c3cc(-c4cnc5ccccc5c4)ccc3ncc21 [Dactolisib] + CC(=O)Nc1cccc(-n2c(=O)n(C3CC3)c(=O)c3c(Nc4ccc(I)cc4F)n(C)c(=O)c(C)c32)c1 [Trametinib] (partner 0.02 µM)
In short: as §1

AZ505 + Foretinib = compound: C1CCC(CC1)N(CCNCCC2=C3C(=C(C=C2)O)NC(=O)CO3)C(=O)CCNCCC4=CC(=C(C=C4)Cl)Cl [AZ505] + COc1cc2c(Oc3ccc(NC(=O)C4(C(=O)Nc5ccc(F)cc5)CC4)cc3F)ccnc2cc1OCCCN1CCOCC1 [Foretinib] (partner 0.25 µM)
In short: as §1

Cell Line | relative viability (Dactolisib + Navitoclax; first compound 0.002 µM) | relative viability (Dactolisib + Navitoclax; first compound 0.006325 µM) | relative viability (Dactolisib + Navitoclax; first compound 0.02 µM) | relative viability (Dactolisib + Navitoclax; first compound 0.06325 µM) | relative viability (Dactolisib + Navitoclax; first compound 0.2 µM) | relative viability (AZ505 + Vorinostat; first compound 0.08 µM) | relative viability (AZ505 + Vorinostat; first compound 0.253 µM) | relative viability (AZ505 + Vorinostat; first compound 0.8 µM) | relative viability (AZ505 + Vorinostat; first compound 2.53 µM) | relative viability (AZ505 + Vorinostat; first compound 8 µM) | relative viability (Dactolisib + Trametinib; first compound 0.002 µM) | relative viability (Dactolisib + Trametinib; first compound 0.006325 µM) | relative viability (Dactolisib + Trametinib; first compound 0.02 µM) | relative viability (Dactolisib + Trametinib; first compound 0.06325 µM) | relative viability (Dactolisib + Trametinib; first compound 0.2 µM) | relative viability (AZ505 + Foretinib; first compound 0.253 µM) | relative viability (AZ505 + Foretinib; first compound 0.8 µM) | relative viability (AZ505 + Foretinib; first compound 8 µM) | relative viability (AZ505 + Foretinib; first compound 0.08 µM) | relative viability (AZ505 + Foretinib; first compound 2.53 µM)
NCI-H2347 | 0.928 | 0.746 | 0.729 | 0.308 | 0.271 | 0.39 | 0.417 | 0.474 | 0.464 | 0.352 | 0.277 | 0.262 | 0.263 | 0.158 | 0.295 | 0.743 | 0.719 | 1.04 |  | 
NCI-H2405 | 0.727 | 0.935 | 0.831 | 0.391 | 0.25 | 0.811 |  | 0.823 | 0.856 | 0.863 | 0.469 | 0.665 | 0.56 | 0.389 | 0.253 | 0.776 | 0.746 | 0.746 | 0.755 | 0.767
NCI-H3122 | 1.02 | 1.05 | 0.993 | 0.809 | 0.491 | 0.807 | 1.02 | 1.03 | 0.992 | 1.01 | 0.207 | 0.218 | 0.232 | 0.219 | 0.176 | 0.993 | 0.837 | 1.05 | 0.889 | 0.964
PC-3 [JPC-3] | 0.796 | 0.787 | 0.879 | 0.742 | 0.509 | 0.821 |  | 0.786 | 0.934 | 1.09 | 0.718 | 0.673 | 0.76 | 0.595 | 0.451 | 0.936 | 0.923 | 1.04 | 0.945 | 0.991
PC-14 | 1.09 | 1.06 | 1.06 | 0.329 | 0.432 | 0.527 | 0.79 | 0.659 | 0.688 | 0.761 | 0.81 | 0.583 | 0.367 | 0.0961 | 0.0834 | 0.927 | 1.03 | 0.937 | 0.922 | 1.01
RERF-LC-KJ | 0.875 | 1.03 | 0.697 | 0.455 | 0.609 | 0.616 | 0.689 | 0.564 | 0.672 | 0.669 | 0.86 | 0.902 | 0.772 | 0.407 | 0.467 | 0.829 | 0.8 | 0.863 | 0.906 | 0.46
SK-LU-1 | 1.14 | 0.627 | 0.707 | 0.673 | 0.319 | 0.488 | 0.463 | 0.513 | 0.548 | 0.588 | 0.476 | 0.657 | 0.392 | 0.34 | 0.283 | 0.58 | 0.612 | 0.51 | 0.542 | 0.515
SK-MES-1 | 1.34 | 1.17 | 1.1 | 0.574 | 0.55 | 0.889 | 1 | 0.969 | 0.893 | 0.995 | 0.581 | 0.528 | 0.467 | 0.355 | 0.263 | 0.774 | 0.824 | 0.738 | 0.765 | 0.782
SW 1573 | 1.09 | 0.866 | 0.775 | 0.252 | 0.294 | 0.807 | 0.806 | 1.53 | 0.756 | 0.79 | 0.529 | 0.438 | 0.482 | 0.144 | 0.163 | 0.993 | 0.918 | 0.959 | 0.873 | 0.817
